Experimental data from publication PMC9403976, “Elucidating the path to Plasmodium prolyl-tRNA synthetase inhibitors that overcome halofuginone resistance” (Nature Communications, 2022).
Where “and” joins values, the source holds several entries; their conditions need not be identical. Equal entries are not always repeated. Where two headings read alike, the source gives them in different places.

What was measured:
[1] = system: P. falciparum Dd2-2D4; test: P. falciparum asexual blood stage (ABS) growth assay, SYBR Green, 72 h, wild-type parasites; format: cell-based, Plasmodium falciparum; details: Plasmodium falciparum, DD2; SI Fig 16b; values on -log scale; read-out: ABS - Dd2-2D4 (converted)
[2] = molecular target: HsProRS (Homo sapiens, UniProt P07814); test: TR-FRET ligand displacement assay with tracer MAT379 (CoraFluor-1-Halo and anti-His6 antibody formats); format: binding; design: made in house; host or cells: E. coli SoluBL-21; details: for TR-FRET dose-response, normalized signal (SI Fig 11): individual replicates
Chain of HsProRS (P07814 996-1512): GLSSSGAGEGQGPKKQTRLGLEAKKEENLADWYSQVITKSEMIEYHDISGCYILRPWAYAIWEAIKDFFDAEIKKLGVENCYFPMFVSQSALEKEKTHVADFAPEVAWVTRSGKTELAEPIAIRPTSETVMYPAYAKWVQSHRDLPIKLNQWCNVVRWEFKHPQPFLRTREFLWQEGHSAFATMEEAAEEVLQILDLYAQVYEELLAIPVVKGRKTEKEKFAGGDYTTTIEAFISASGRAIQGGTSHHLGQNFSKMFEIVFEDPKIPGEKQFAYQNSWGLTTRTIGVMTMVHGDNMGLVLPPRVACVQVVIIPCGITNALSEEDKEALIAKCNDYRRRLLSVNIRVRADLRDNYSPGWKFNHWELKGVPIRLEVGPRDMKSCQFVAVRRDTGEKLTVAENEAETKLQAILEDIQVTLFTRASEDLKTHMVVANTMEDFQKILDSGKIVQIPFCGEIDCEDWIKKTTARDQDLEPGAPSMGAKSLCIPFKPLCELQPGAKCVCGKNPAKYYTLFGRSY

[3] = molecular target: T1, PfcProRS (Plasmodium falciparum, UniProt Q8I5R7); format: binding; details: single replicates
T1 construct: made in house; host or cells: E. coli SoluBL-21
T1 sequence (Q8I5R7 249-746): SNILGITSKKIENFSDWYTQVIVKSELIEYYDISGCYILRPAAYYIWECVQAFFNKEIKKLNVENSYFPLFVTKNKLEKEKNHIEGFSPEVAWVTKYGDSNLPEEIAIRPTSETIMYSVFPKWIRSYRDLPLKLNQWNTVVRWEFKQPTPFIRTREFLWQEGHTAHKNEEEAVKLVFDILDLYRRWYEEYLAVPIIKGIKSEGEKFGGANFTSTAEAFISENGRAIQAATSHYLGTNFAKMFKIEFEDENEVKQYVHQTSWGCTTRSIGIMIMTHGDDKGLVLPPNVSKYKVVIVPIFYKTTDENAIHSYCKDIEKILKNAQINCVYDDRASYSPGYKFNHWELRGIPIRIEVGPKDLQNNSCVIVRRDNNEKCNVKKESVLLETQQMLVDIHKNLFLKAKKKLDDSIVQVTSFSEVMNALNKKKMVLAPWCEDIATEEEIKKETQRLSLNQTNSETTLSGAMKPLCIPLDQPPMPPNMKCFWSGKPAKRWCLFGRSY

For NC(=O)Nc1nccnc1C(=O)NC1Cc2ccccc2C1 [compound 23], the EC50 [1] was 12.1 µM, the IC50 [2] was greater than 10 µM and the “HsProRS % signal at 10 μM, + 100 μM proline” value ([2]; + 100 μM proline, 10 μM) was 78.4%. The “normalized TR-FRET ligand displacement signal, dose-response replicates (SI Fig 6)” value ([2]; Log[inhibitor] (M) -5.000) was 9.23E-01 and 9.68E-01 and 8.88E-01, the “TR-FRET dose-response, normalized signal (SI Fig 11)” value ([2]; Log[inhibitor] (M) -5.000) was 8.87E-01 and 8.66E-01 and 9.17E-01 and the “normalized TR-FRET ligand displacement signal, dose-response replicates (SI Fig 6)” value ([2]; Log[inhibitor] (M) -5.301) was 9.33E-01 (2×) and 1.11E+00. For the same compound, the “TR-FRET dose-response, normalized signal (SI Fig 11)” value ([2]; Log[inhibitor] (M) -5.301) was 9.05E-01 and 8.98E-01 and 9.19E-01, the “normalized TR-FRET ligand displacement signal, dose-response replicates (SI Fig 6)” value ([2]; Log[inhibitor] (M) -5.601) was 9.64E-01 and 1.03E+00 and 9.59E-01 and the “TR-FRET dose-response, normalized signal (SI Fig 11)” value ([2]; Log[inhibitor] (M) -5.601) was 9.98E-01 and 9.77E-01 and 1.05E+00. The “normalized TR-FRET ligand displacement signal, dose-response replicates (SI Fig 6)” value ([2]; Log[inhibitor] (M) -5.904) was 1.09E+00 and 1.01E+00 and 9.81E-01, the “TR-FRET dose-response, normalized signal (SI Fig 11)” value ([2]; Log[inhibitor] (M) -5.904) was 1.00E+00 and 9.89E-01 and 1.01E+00 and the “normalized TR-FRET ligand displacement signal, dose-response replicates (SI Fig 6)” value ([2]; Log[inhibitor] (M) -6.208) was 9.87E-01 and 1.09E+00 and 1.03E+00. The “TR-FRET dose-response, normalized signal (SI Fig 11)” value ([2]; Log[inhibitor] (M) -6.208) was 9.53E-01 and 1.02E+00 and 9.38E-01, the “normalized TR-FRET ligand displacement signal, dose-response replicates (SI Fig 6)” value ([2]; Log[inhibitor] (M) -6.509) was 9.55E-01 and 1.02E+00 and 8.65E-01 and the “TR-FRET dose-response, normalized signal (SI Fig 11)” value ([2]; Log[inhibitor] (M) -6.509) was 1.01E+00 and 1.02E+00 and 9.66E-01. The “normalized TR-FRET ligand displacement signal, dose-response replicates (SI Fig 6)” value ([2]; Log[inhibitor] (M) -6.796) was 1.06E+00 and 9.70E-01 and 9.00E-01, the “TR-FRET dose-response, normalized signal (SI Fig 11)” value ([2]; Log[inhibitor] (M) -6.796) was 1.06E+00 and 1.02E+00 and 1.01E+00 and the “normalized TR-FRET ligand displacement signal, dose-response replicates (SI Fig 6)” value ([2]; Log[inhibitor] (M) -7.108) was 9.62E-01 and 9.53E-01 and 1.03E+00. The “TR-FRET dose-response, normalized signal (SI Fig 11)” value ([2]; Log[inhibitor] (M) -7.108) was 9.79E-01 and 1.00E+00 and 1.02E+00, the “normalized TR-FRET ligand displacement signal, dose-response replicates (SI Fig 6)” value ([2]; Log[inhibitor] (M) -7.409) was 9.73E-01 and 9.58E-01 and 1.07E+00 and the “TR-FRET dose-response, normalized signal (SI Fig 11)” value ([2]; Log[inhibitor] (M) -7.409) was 1.02E+00 (2×) and 1.04E+00. For the same compound, the “normalized TR-FRET ligand displacement signal, dose-response replicates (SI Fig 6)” value ([2]; Log[inhibitor] (M) -7.710) was 1.04E+00 and 9.48E-01 and 1.10E+00, the “TR-FRET dose-response, normalized signal (SI Fig 11)” value ([2]; Log[inhibitor] (M) -7.710) was 1.01E+00 and 1.04E+00 and 9.76E-01 and the “normalized TR-FRET ligand displacement signal, dose-response replicates (SI Fig 6)” value ([2]; Log[inhibitor] (M) -8.000) was 1.00E+00 (2×) and 1.06E+00. The “TR-FRET dose-response, normalized signal (SI Fig 11)” value ([2]; Log[inhibitor] (M) -8.000) was 9.60E-01 and 1.00E+00 (2×), the “normalized TR-FRET ligand displacement signal, dose-response replicates (SI Fig 6)” value ([2]; Log[inhibitor] (M) -8.301) was 9.32E-01 and 1.07E+00 and 9.64E-01 and the “TR-FRET dose-response, normalized signal (SI Fig 11)” value ([2]; Log[inhibitor] (M) -8.301) was 1.00E+00 and 9.88E-01 and 1.08E+00. For the same compound, the “normalized TR-FRET ligand displacement signal, dose-response replicates (SI Fig 6)” value ([2]; Log[inhibitor] (M) -8.602) was 1.06E+00 and 1.00E+00 and 1.07E+00, the “TR-FRET dose-response, normalized signal (SI Fig 11)” value ([2]; Log[inhibitor] (M) -8.602) was 1.00E+00 and 1.01E+00 and 9.76E-01 and the “normalized TR-FRET ligand displacement signal, dose-response replicates (SI Fig 6)” value ([2]; Log[inhibitor] (M) -9.000) was 1.03E+00 (2×) and 9.79E-01. The “TR-FRET dose-response, normalized signal (SI Fig 11)” value ([2]; Log[inhibitor] (M) -9.000) was 1.00E+00 and 9.57E-01 and 9.73E-01, the “normalized TR-FRET ligand displacement signal, dose-response replicates (SI Fig 6)” value ([2]; Log[inhibitor] (M) -9.301) was 1.02E+00 (2×) and 9.65E-01 and the “TR-FRET dose-response, normalized signal (SI Fig 11)” value ([2]; Log[inhibitor] (M) -9.301) was 9.83E-01 and 9.76E-01 and 9.75E-01. The “HsProRS % signal at 10 μM” value ([2]; no added proline/ATP (-), 10 μM) was 89.0%, the IC50 ([2]; read-out: HsProRS IC50 + 100 μM proline, + 100 μM proline) was greater than 10 µM and the “dose-response signal (normalized), SI Fig 8” value ([3]; Log[inhibitor] (M) -5.000) was 9.53E-01 and 9.58E-01 and 9.22E-01. For the same compound, the “dose-response signal (normalized), SI Fig 8” value ([3]; Log[inhibitor] (M) -5.301) was 9.58E-01 and 1.12E+00 and 1.10E+00, the “dose-response signal (normalized), SI Fig 8” value ([3]; Log[inhibitor] (M) -5.601) was 1.05E+00 and 1.01E+00 and 9.67E-01 and the “dose-response signal (normalized), SI Fig 8” value ([3]; Log[inhibitor] (M) -5.904) was 9.75E-01 and 1.01E+00 and 9.11E-01. The “dose-response signal (normalized), SI Fig 8” value ([3]; Log[inhibitor] (M) -6.208) was 1.13E+00 and 1.21E+00 and 1.04E+00, the “dose-response signal (normalized), SI Fig 8” value ([3]; Log[inhibitor] (M) -6.509) was 1.02E+00 and 1.09E+00 and 1.04E+00 and the “dose-response signal (normalized), SI Fig 8” value ([3]; Log[inhibitor] (M) -6.796) was 1.08E+00 and 1.02E+00 and 1.06E+00. The “dose-response signal (normalized), SI Fig 8” value ([3]; Log[inhibitor] (M) -7.108) was 9.85E-01 and 1.02E+00 and 9.97E-01, the “dose-response signal (normalized), SI Fig 8” value ([3]; Log[inhibitor] (M) -7.409) was 9.53E-01 and 1.06E+00 and 1.07E+00 and the “dose-response signal (normalized), SI Fig 8” value ([3]; Log[inhibitor] (M) -7.710) was 9.44E-01 and 1.06E+00 and 1.08E+00. The “dose-response signal (normalized), SI Fig 8” value ([3]; Log[inhibitor] (M) -8.000) was 9.87E-01 and 9.72E-01 and 1.16E+00, the “dose-response signal (normalized), SI Fig 8” value ([3]; Log[inhibitor] (M) -8.301) was 1.10E+00 and 1.12E+00 and 1.02E+00 and the “dose-response signal (normalized), SI Fig 8” value ([3]; Log[inhibitor] (M) -8.602) was 9.87E-01 and 1.09E+00 and 1.12E+00. For the same compound, the “dose-response signal (normalized), SI Fig 8” value ([3]; Log[inhibitor] (M) -9.000) was 1.08E+00 and 9.51E-01 and 1.17E+00 and the “dose-response signal (normalized), SI Fig 8” value ([3]; Log[inhibitor] (M) -9.301) was 9.82E-01 and 1.20E+00 and 1.04E+00.
